We go through five molecules from patent US20230272010A1, “ANTIBACTERIAL SYNTHETIC-BIOINFORMATIC NATURAL PRODUCTS AND USES THEREOF” (The Rockefeller University, priority 2020, published 2023).

One series has as its system HeLa cells. Nature of the series: in vitro. The series is classed as cell-based, human. The protocol: (§1) HeLa cells were grown in Dulbecco's Modified Eagle Medium (DMEM) supplemented with penicillin (10 units/mL), streptomycin (10 units/mL), […] (2 mM), and heat-inactivated fetal bovine serum (10% v/v) at 37° C. in a 5% CO2 atmosphere. HeLa cells were seeded into 384-well plates (500 cells per well) and incubated in DMEM at 37° C. with 5% CO2 for 16 h to allow cells to adhere. The OD570 readings were used to calculate relative growth (%) based on the positive (2 μM Taxol™, 0%) and negative (DMSO, 100%) controls. The cytotoxicity assay was performed in quadruplicate (n=4) and analyzed according to protocol reported previously (Chu Jet al., 2019, J. Am. Chem. Soc., 141:15737-15741).

The test system of the next series is E. coli DH5α. Nature of the series: MIC determination by broth microdilution. The series is classed as cell-based, Escherichia coli. For orientation: Broth dilution looks for growth in wells or tubes with falling amounts of substance.
The next series concerns A. baumannii. Nature of the series: MIC determination by broth microdilution. The series is classed as cell-based, Acinetobacter baumannii.
Another series has as its system P. aeruginosa. Nature of the series: MIC determination by broth microdilution. The series is classed as cell-based, Pseudomonas aeruginosa.
In a further series the test system is M. tuberculosis H37Rv. The following applies: highest concentration tested 12.5 μg/mL.
Series [1] deals with S. aureus farER deletion mutant.
The test system of series [2] is S. aureus farER deletion mutant with constitutive overexpression of the farER effux system (pALCfarER).
Another series concerns S. aureus SH1000 ΔclpP. The note with it: clpP deletion.
A short description of another series: in vitro. The series is classed as cell-based, human. The note with it: human. The protocol: as §1
Series [3] concerns Bacillus subtilis, Escherichia coli, and the ESKAPE pathogens. Nature of the series: Antibacterial activity / MIC against screening panel of bacteria. The note with it: panel of Gram-positive and Gram-negative bacteria, FIG. 4A. The series is classed as cell-based. An excerpt: To identify antibacterial active syn-BNPs, each fraction, containing the mass of a target syn-BNP cyclic peptide against Bacillus subtilis, Escherichia coli, and the ESKAPE pathogens, was screened. ESKAPE pathogens represented the bacteria most commonly associated with antibiotic-resistant nosocomial infections: Enterococcus faecium, Staphylococcus aureus, Klebsiella pneumoniae, Acinetobacter baumannii, Pseudomonas aeruginosa, and Enterobacter cloacae (Boucher H W et al., 2009, Clin. Infect. Dis., 48:1-12).
In the initial screen, semi-pure peptides were spotted on solid growth media seeded with each bacterium. […]
Standard susceptibility assays were performed in the appropriate growth medium in 96-well microtiter plates to determine the MIC by the broth microdilution method in accordance to protocols recommended by Clinical and Laboratory Standards Institute (Weinstein MP, 2012, Methods for dilution antimicrobial susceptibility tests for bacteria that grow aerobically, 9th edition; Clinical and Laboratory Standards Institute, Wayne, Pa.). For polymyxin-supplemented assays, the MIC of polymyxin against a bacterium was first determined (lx MIC). […] The measured MICs were as follows: E. coli DH5α (0.0625 μg/mL), K. pneumoniae and P. aeruginosa (0.15 μg/mL), A. baumannii ([…]), and E. cloacae (2 μg/mL). […]

The next series concerns S. aureus or B. subtilis. Nature of the series: Membrane lysis assay (SYTOX fluorescence). The series is classed as cell-based. The note with it: initial assays, FIG. 4C and 4D.

Converted amounts (≈) assume the structure as drawn. Residues, ends and D or L forms follow the SMILES beside them. Some results are limits rather than exact numbers.

In general, MIC refers to the lowest concentration found to suppress growth. A higher MIC goes with weaker potency. Usually IC50 stands for the concentration at which inhibition is half-maximal.

In the case of `CCCCCCCCCCCC1CC(=O)N[C@H](Cc2ccccc2)C(=O)N[C@H](CCCN)C(=O)N[C@@H](C(C)C)C(=O)N[C@@H]([C@@H](C)CC)C(=O)N[C@@H](Cc2ccccc2)C(=O)N[C@@H](C)C(=O)N[C@@H](Cc2ccccc2)C(=O)N1` (stereo partly shown) [SyCPA 144, mucilasyn] (HELM PEPTIDE1{A.F.[CCCCCCCCCCCC(CC(=O)[*:2])N[*:1]].[dF].[NCCC[C@@H](N[*:1])C(=O)[*:2]].V.I.F}$PEPTIDE1,PEPTIDE1,1:R1-8:R2$$$V2.0), in the series with HeLa cells, the “Cytotoxicity (in words)” value is listed as “lack of toxicity to human cells in vitro”.
For the molecule polymyxin, the MIC of polymyxin with K. pneumoniae was 0.15 µg/mL; with E. coli DH5α, 0.0625 µg/mL; with A. baumannii, 0.3 μ/mL; in the series on P. aeruginosa, 0.15 µg/mL.
`CCCCCCCCCCCCCC(=O)N[C@H]1CCCNC(=O)[C@H](CC(C)C)NC(=O)[C@H](CCCNC(=N)N)NC(=O)[C@H]([C@@H](C)CC)NC(=O)[C@@H](CCCNC(=N)N)NC1=O` [SyCPA 63, thurinsyn] (HELM PEPTIDE1{[CCCCCCCCCCCCCC(=O)[*:2]].[Orn].[dR].I.R.L}$PEPTIDE1,PEPTIDE1,2:R3-6:R2$$$V2.0): the figures for the MIC in the series with K. pneumoniae and in the series with M. tuberculosis H37Rv were 8 µg/mL (≈ 9.27 µM) and 6 µg/mL (≈ 6.95 µM), respectively. In addition, the “Cytotoxicity (in words)” value in the series on HeLa cells is “minimal HeLa cell cytotoxicity”.
With `CCCCCCCCCCCC1CC(=O)N[C@H](CC(C)C)C(=O)N[C@H](CN)C(=O)N[C@@H](C(C)C)C(=O)N[C@@H](CO)C(=O)N[C@@H]([C@@H](C)CC)C(=O)N1` (stereo partly drawn) [SyCPA 116, collimosyn] (HELM PEPTIDE1{I.[CCCCCCCCCCCC(CC(=O)[*:2])N[*:1]].[dL].[NC[C@@H](N[*:1])C(=O)[*:2]].V.S}$PEPTIDE1,PEPTIDE1,1:R1-6:R2$$$V2.0), the MIC in [1] was 8 µg/mL (≈ 11 µM); in [2], > 64 µg/mL. Besides, the “Resistance (MIC)” value with S. aureus SH1000 ΔclpP was > 128 µg/mL. Further, in the series on HeLa cells, the “Cytotoxicity (in words)” value is listed as “showed human cell line toxicity”. In “in vitro”, it took 11 µg/mL (≈ 15.2 µM) to reach half-maximal inhibition (IC50).
Turning to `CCCCCCCCCCCCCC(=O)N[C@@H]1CNC(=O)[C@@H]2CCCN2C(=O)[C@H](Cc2ccccc2)NC(=O)[C@@H](C(C)C)NC(=O)[C@H](C)NC(=O)[C@@H](CCC(N)=O)NC(=O)[C@H]2CCCN2C1=O` [SyCPA 2] (HELM PEPTIDE1{[CCCCCCCCCCCCCC(=O)[*:2]].[O=C([C@@H](CN[*:3])N[*:1])[*:2]].[dP].[dQ].A.[dV].F.P}$PEPTIDE1,PEPTIDE1,2:R3-8:R2$$$V2.0), the Spectrum of activity entry in [3] is “broader Gram-positive activity”. The molecule also came in with an IC50 in the series “in vitro” of 16 µg/mL (≈ 17.1 µM). The “SYTOX or DiSC3(5) fluorescence” value in the series with S. aureus or B. subtilis was “slight increase in either SYTOX or DiSC3(5) fluorescence”.
